The values below come from publication PMC3269340, “Pharmacokinetics of memantine in rats and mice” (PLoS Currents, 2012).

Several values for one entry are separate records, joined by “and”; a condition that tells them apart may be missing. Identical values can stand only once.

Type in all cases: in vitro ADME
One series relates to Caco2 cells. The experiment in a line: Bidirectional Caco permeability. As to conditions: Caco2 cells. The procedure:
(§1) CacoReady ^TM 24-transwell plates with plated Caco cells were purchased from Advancell, and were prepared for the experiments following manufacturer’s instructions. Memantine and reference compounds (propranolol, digoxin and vinblatine) were added to either the apical or basolateral chambers of the transwell plate assembly at a concentration of 10 μM prepared in Hanks’ Balanced Salt Solution containing 25 mM HEPES (pH7.4). Lucifer Yellow (LY) was added to the donor buffer in all wells to assess viability of the cell layer. Since LY cannot freely permeate lipophilic barriers, results were rejected when a high degree of LY transport (>100nm/s) was observed. After a 1 h incubation at 37°C, aliquots were taken from both chambers and added to acetonitrile containing an analytical internal standard in a 96-well plate. Concentrations of compound in the samples were measured by (HPLC-MS/MS).
(§2) Papp values were calculated from the relationship:
(§3) Papp = ([compound]acceptor final × Va )/ (A × time ([compound]donor initial )
(§4) The efflux ratio (Er) was calculated as
(§5) Er = Papp (B to A) / Papp (A to B)
On the technique in general: Passage across Caco-2 layers is used to estimate intestinal permeability.

Series [1] can be described thus: Bidirectional Caco permeability. As to conditions: human, Caco-2, pH 7.4. The procedure:
as §1, §2, §3, §4, §5

In the next series the target is T1, human OCT1 (Homo sapiens, UniProt O15245).
T1 construct: expressed in transfected cells; host or cells: CHO cells
T1 sequence (O15245 1-554): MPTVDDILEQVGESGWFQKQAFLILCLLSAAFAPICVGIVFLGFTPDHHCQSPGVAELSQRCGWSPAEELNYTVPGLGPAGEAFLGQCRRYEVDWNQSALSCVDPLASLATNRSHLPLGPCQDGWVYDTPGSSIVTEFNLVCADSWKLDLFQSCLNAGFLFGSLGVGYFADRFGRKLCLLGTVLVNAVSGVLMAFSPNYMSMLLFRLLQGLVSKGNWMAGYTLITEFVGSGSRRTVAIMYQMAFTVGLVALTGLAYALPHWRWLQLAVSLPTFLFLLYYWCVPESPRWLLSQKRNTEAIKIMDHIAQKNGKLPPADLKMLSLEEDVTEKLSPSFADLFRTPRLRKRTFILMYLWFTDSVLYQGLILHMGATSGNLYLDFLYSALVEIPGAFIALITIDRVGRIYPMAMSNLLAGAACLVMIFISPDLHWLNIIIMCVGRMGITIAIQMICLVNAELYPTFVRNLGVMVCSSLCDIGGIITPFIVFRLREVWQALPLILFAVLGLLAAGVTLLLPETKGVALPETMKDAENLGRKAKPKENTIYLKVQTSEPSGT
The experiment in a line: Indirect uptake transporter assay, OCT1. An excerpt:
To determine whether memantine is an inhibitor of the human OATP2B1 (OATP-B), OCT1, OCT2, OAT3, PEPT1, PEPT2 uptake transporters. The standard uptake transporter assay is an indirect, inhibitory-type screening assay, performed with cold test article, which in this case was memantine. It provides information on any interaction (substrate or inhibitor) between selected uptake transporters and memantine that would affect the transport of the reporter compound. […] A radiolabeled reporter substrate is transported into the cells transfected with the selected human uptake transporter, and the inhibitory effect of memantine on the transport of this reporter substrate is measured. Values are presented on a relative scale; 100% defined as transport in the presence of the solvent and without memantine (no inhibition), and 0% defined as transport detected without transporter activity. IC50 is defined as the concentration required to inhibit the transport of the reporter substrate by 50%. […]
After the experiment cells were rinsed with 2 x 100µl of Krebs-Henseleit buffer and lysed with 50 µl of 0.1M NaOH. ^3H-estrone-3-sulfate, ^14C-TEA, ^14C-metformin and ^3H-Gly-Sar transport was determined by total radioactivity by transferring an aliquot (35µl) from each well to a vial containing liquid scintillant for analysis.

A short description of series [2]: Metabolite identification in rat liver microsomes. Conditions: 10 µM, 1 mg/mL rat liver microsomal protein, 60 min. The procedure:
Metabolites of memantine were characterized following incubation in pooled rat liver microsomes. Incubation conditions were as described above (Section 4.1), except that for metabolite identification the memantine concentration was 10 µM, 1 mg/mL of liver microsomal protein was used, and the metabolites were identified following a 60 min incubation period. Control incubations (T=0 min) were used as reference, and testosterone incubations were used as a positive control.
Full scan mass spectra were acquired by TOF-MS as accurate mass. The instruments were controlled and data acquired by Waters MassLynx™ version 4.1 (SCN 714) software. The TOF-MS spectra were interrogated and metabolite reports generated by Waters MetaboLynx™ XS software.

As a reminder, the IC50 is the concentration at which inhibition is half-maximal. As for `CC12CC3CC(C)(C1)CC(N)(C3)C2` [memantine], the “MDR1 (Pgp) substrate” value in the series with Caco2 cells is on record as “not a MDR1 (Pgp) substrate”. For the same molecule, the Papp A→B at 1 h, 10 μM in series [1] (10 μM, pH7.4, 1 h, read-out: Caco Permeability AtoB) is 43.4 ×10⁻⁶ cm/s. Further, the Papp B→A at 1 h, 10 μM in series [1] (10 μM, pH7.4, 1 h, read-out: Caco Permeability BtoA) came to 47 ×10⁻⁶ cm/s. In series [1] (Papp (B to A) / Papp (A to B), read-out: ER (efflux ratio)), the efflux ratio at 1 h, 10 μM is about 1. In addition, the “Maximal Inhibition” value at human OCT1 (OCT1, up to 300 µM) is given as about 94%. The IC50 on human OCT1 (OCT1, probe in Table 5: Gly-Sar (1.8 μM), methods and text: TEA) is 3.5 µM and 3.51 µM. In addition, the “most abundant metabolite (based on uv signal response)” value in series [2] is recorded as “product of a single aliphatic hydroxylation”.
